Legend:
[1] = test system: parent elite stiff stalk inbred corn; assay: Preemergence effect of ALS herbicides (fresh weight, visual injury); conditions: 200 g/ha, mean of four replications; for % Visual Injury Patent elite stiff stalk inbred: 4 weeks after treatment, 0% no injury, 100% plant death; for Fresh Weight (g) patent elite stiff stalk inbred: fresh shoots 4 weeks after treatment, untreated 36.7 g
[2] = test system: parent elite stiff stalk inbred corn; assay: Postemergence effect of ALS herbicides, glyphosate and glufosinate (fresh weight, visual injury); conditions: 200 g/ha (glyphosate 3472 g ae/ha, glufosinate ammonium 1870 g/ha), mean of four replications; for % Visual Injury Parent elite stiff stalk inbred: 2 weeks after treatment, 0% no injury, 100% plant death; for Fresh Weight (g) Parent elite stiff stalk inbred: applied two weeks after planting, fresh shoots 2 weeks after treatment, untreated 76.4 g
[3] = test system: heterozygous GAT-HRA corn; assay: as above; conditions: 200 g/ha (glyphosate 3472 g ae/ha, glufosinate ammonium 1870 g/ha), mean of four replications; for % Visual Injury Heterozygous GAT-HRA: 2 weeks after treatment, 0% no injury, 100% plant death; for Fresh Weight (g) Heterozygous GAT-HRA: applied two weeks after planting, fresh shoots 2 weeks after treatment, untreated 98.8 g
[4] = test system: heterozygous GAT-HRA corn; assay: Preemergence effect of ALS herbicides (fresh weight, visual injury); conditions: 200 g/ha, mean of four replications; for % Visual Injury Heterozygous GAT-HRA: 4 weeks after treatment, 0% no injury, 100% plant death; for Fresh Weight (g) Heterozygous GAT-HRA: fresh shoots 4 weeks after treatment, untreated 47.0 g

Compound	% Visual Injury Patent elite stiff stalk inbred [1]	% Visual Injury Parent elite stiff stalk inbred [2]	% Visual Injury Heterozygous GAT-HRA [3]	% Visual Injury Heterozygous GAT-HRA [4]	Fresh Weight (g) patent elite stiff stalk inbred [1]	Fresh Weight (g) Parent elite stiff stalk inbred [2]	Fresh Weight (g) Heterozygous GAT-HRA [3]	Fresh Weight (g) Heterozygous GAT-HRA [4]
COc1cc(OC)nc(NC(=O)NS(=O)(=O)c2cc(NC=O)ccc2C(=O)N(C)C)n1 [Foramsulfuron, 2-[[[[(4,6-dimethoxy-2-pyrimidinyl)amino]carbonyl]amino]sulfonyl]-4-(formylamino)-N,N-dimethylbenzamide]	5%	28%	8%	7%	–	–	–	–
COc1nc(C)nc(NC(=O)NS(=O)(=O)c2ccccc2CCC(F)(F)F)n1 [Prosulfuron, N-[[(4-methoxy-6-methyl-1,3,5-triazin-2-yl)amino]carbonyl]-2-(3,3,3-trifluoropropyl)benzenesulfonamide]	68%	25%	29%	9%	–	–	–	–
COC(=O)c1c(Cl)nn(C)c1S(=O)(=O)NC(=O)Nc1nc(OC)cc(OC)n1 [Halosulfuron-methyl, methyl 3-chloro-5-[[[[(4,6-dimethoxy-2-pyrimidinyl)amino]-carbonyl]amino]sulfonyl]-1-methyl-1H-pyrazole-4-carboxylate]	30%	14%	8%	15%	–	–	–	–
CC(C)C1(C)N=C(c2nc3ccccc3cc2C(=O)O)NC1=O (stereo not drawn) [Imazaquin]	99%	100%	2%	28%	1.5 g	4.4 g	113.3 g	45.4 g
COC(=O)c1sccc1S(=O)(=O)NC(=O)Nc1nc(C)nc(OC)n1 [Thifensulfuron-methyl, methyl 3-[[[[(4-methoxy-6-methyl-1,3,5-triazin-2-yl)amino]carbonyl]amino]sulfonyl]-2-thiophenecarboxylate]	88%	98%	10%	3%	–	–	–	–
COC(=O)c1cccc(C)c1S(=O)(=O)NC(=O)Nc1nc(OCC(F)(F)F)nc(N(C)C)n1 [Triflusulfuron-methyl]	100%	100%	8%	5%	26.3 g	2.1 g	110.9 g	53.5 g
COc1cc(OC)nc(NC(=O)NS(=O)(=O)c2ncccc2OCC(F)(F)F)n1 [Trifloxysulfuron Na^+, N-[[(4,6-dimethoxy-2-pyrimidinyl)amino]-carbonyl]-3-(2,2,2-trifluoroethoxy)-2-pyridinesulfonamide]	100%	100%	29%	0%	0.0 g	1.0 g	86.6 g	50.8 g
COc1nc(C)nc(NC(=O)NS(=O)(=O)c2ccccc2Cl)n1 [Chlorsulfuron, 2-chloro-N-[[(4-methoxy-6-methyl-1,3,5-triazin-2-yl)amino]-carbonyl]benzenesulfonamide]	100%	100%	13%	33%	–	–	–	–
CO/N=C(/C)c1cccc(Oc2nc(OC)cc(OC)n2)c1C(=O)OC [Pyriminobac-methyl]	83%	93%	4%	20%	30.4 g	7.6 g	95.2 g	39.9 g
COCc1cnc(C2=NC(C)(C(C)C)C(=O)N2)c(C(=O)O)c1 (stereo not drawn) [Imazamox]	99%	100%	4%	13%	0.8 g	2.2 g	90.9 g	47.5 g
COc1nn(C(=O)NS(=O)(=O)c2ccccc2OC(F)(F)F)c(=O)n1C [Flucarbazone Na^+, 4,5-dihydro-3-methoxy-4-methyl-5-oxo-N-[[2-(trifluoromethoxy)phenyl]sulfonyl]-1H-1,2,4-triazole-1-carboxamide]	100%	100%	14%	40%	–	–	–	–
CCOc1ccccc1OS(=O)(=O)NC(=O)Nc1nc(OC)cc(OC)n1 [Ethoxysulfuron, 2-ethoxyphenyl[[(4,6-dimethoxy-2-pyrimidinyl)amino]carbonyl]sulfamate]	63%	88%	15%	25%	–	–	–	–
Imazamethabenz-methyl	61%	11%	16%	15%	36.2 g	66.9 g	95.0 g	48.5 g
Cc1ccn2nc(S(=O)(=O)Nc3c(F)cccc3F)nc2n1 [Flumetsulam, N-(2,6-difluorophenyl)-5-methyl[1,2,4]triazolo[1,5-a]pyrimidine-2-sulfonamide]	13%	85%	3%	13%	–	–	–	–
COC(=O)c1ccccc1CS(=O)(=O)NC(=O)Nc1nc(OC)cc(OC)n1 [Bensulfuron-methyl, methyl 2-[[[[[(4,6-dimethoxy-2-pyrimidinyl)amino]carbonyl]amino]sulfonyl]methyl]benzoate]	23%	93%	14%	10%	–	–	–	–
CCOc1nc(NC)nc(NC(=O)NS(=O)(=O)c2ccccc2C(=O)OC)n1 [Ethametsulfuron-methyl, methyl 2-[[[[[4-ethoxy-6-(methylamino)-1,3,5-triazin-2-yl]amino]carbonyl]amino]sulfonyl]benzoate]	100%	96%	6%	88%	1.6 g	5.6 g	98.0 g	50.1 g
CP(=O)(O)CCC(N)C(=O)O (stereo not drawn) [Glufosinate ammonium]	–	99%	1%	–	–	2.4 g	112.3 g	–
COc1cc(OC)nc(Sc2cccc(Cl)c2C(=O)[O-])n1.[Na+] [Pyrithiobac Na^+, pyrithiobac-sodium]	100%	100%	9%	0%	0.0 g	2.8 g	87.9 g	48.6 g
CCS(=O)(=O)c1nc2ccccn2c1S(=O)(=O)NC(=O)Nc1nc(OC)cc(OC)n1 [Sulfosulfuron, N-[[(4,6-dimethoxy-2-pyrimidinyl)amino]carbonyl]-2-(ethylsulfonyl)imidazo[1,2-a]pyridine-3-sulfonamide]	100%	97%	3%	18%	–	–	–	–
COc1cc(OC)nc(NC(=O)NS(=O)(=O)c2ncccc2C(=O)N(C)C)n1 [Nicosulfuron, 2-[[[[(4,6-dimethoxy-2-pyrimidinyl)amino]carbonyl]amino]sulfonyl]-N,N-dimethyl-3-pyridinecarboxamide]	43%	24%	0%	0%	33.6 g	62.7 g	94.7 g	50.3 g
CCc1cnc(C2=NC(C)(C(C)C)C(=O)N2)c(C(=O)O)c1 (stereo not drawn) [Imazethapyr]	69%	97%	9%	20%	–	–	–	–

Source: US20080234130A1, “Compositions providing tolerance to multiple herbicides and methods of use thereof” (priority 2005, published 2008)
